The values below come from patent publication US10988477B2 (Merck Patent GmbH, priority 2018, dated 2021).

One assay addresses GCN2 kinase (Homo sapiens, UniProt Q9P2K8). Put plainly: GCN2 enzyme inhibition assay (Transcreener ADP2 fluorescence polarization). Format: biochemical. Conditions: Enzyme activity for compounds of Formula IV; Ki(app), 280 μM ATP, 25° C. Summed up:
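ADP formation read by Transcreener FP after a 1 h, 25 °C kinase reaction containing 280 μM ATP, 200 μM (RS)7 substrate and 4 nM GCN2, pH 7.5 Tris buffer. Compounds (0–8 μM final) were added 10 min before ATP. Percent inhibition gave IC50 and apparent Ki via tight-binding fit.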
In general terms: Fluorescence polarisation rises when a labelled molecule tumbles more slowly, as on binding a larger partner.

Assay [1] addresses intracellular GCN2 (phosphorylation of the GCN2 substrate eIF2α) (Homo sapiens, UniProt Q9P2K8). As to the kind of experiment: GCN2 cellular inhibition assay (AlphaScreen SureFire P-eIF2α Ser51, borrelidin-treated U2OS cells). Format: cell-based. The note with it: compounds of Formula IV; biomarker assay, phosphorylated eIF2α Ser51 in borrelidin-treated U2OS cells. Summed up:
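First, U2OS cells are plated and left overnight at 37 °C. Next, compounds (from 40 μM final, 4-fold steps) and 10 μM borrelidin are added for 1 h, cells lysed, and phospho-Ser51 eIF2α detected by AlphaScreen bead sandwich. Inhibition is computed versus borrelidin-only wells.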

Chain of intracellular GCN2 (phosphorylation of the GCN2 substrate eIF2α) (Q9P2K8 whole entry): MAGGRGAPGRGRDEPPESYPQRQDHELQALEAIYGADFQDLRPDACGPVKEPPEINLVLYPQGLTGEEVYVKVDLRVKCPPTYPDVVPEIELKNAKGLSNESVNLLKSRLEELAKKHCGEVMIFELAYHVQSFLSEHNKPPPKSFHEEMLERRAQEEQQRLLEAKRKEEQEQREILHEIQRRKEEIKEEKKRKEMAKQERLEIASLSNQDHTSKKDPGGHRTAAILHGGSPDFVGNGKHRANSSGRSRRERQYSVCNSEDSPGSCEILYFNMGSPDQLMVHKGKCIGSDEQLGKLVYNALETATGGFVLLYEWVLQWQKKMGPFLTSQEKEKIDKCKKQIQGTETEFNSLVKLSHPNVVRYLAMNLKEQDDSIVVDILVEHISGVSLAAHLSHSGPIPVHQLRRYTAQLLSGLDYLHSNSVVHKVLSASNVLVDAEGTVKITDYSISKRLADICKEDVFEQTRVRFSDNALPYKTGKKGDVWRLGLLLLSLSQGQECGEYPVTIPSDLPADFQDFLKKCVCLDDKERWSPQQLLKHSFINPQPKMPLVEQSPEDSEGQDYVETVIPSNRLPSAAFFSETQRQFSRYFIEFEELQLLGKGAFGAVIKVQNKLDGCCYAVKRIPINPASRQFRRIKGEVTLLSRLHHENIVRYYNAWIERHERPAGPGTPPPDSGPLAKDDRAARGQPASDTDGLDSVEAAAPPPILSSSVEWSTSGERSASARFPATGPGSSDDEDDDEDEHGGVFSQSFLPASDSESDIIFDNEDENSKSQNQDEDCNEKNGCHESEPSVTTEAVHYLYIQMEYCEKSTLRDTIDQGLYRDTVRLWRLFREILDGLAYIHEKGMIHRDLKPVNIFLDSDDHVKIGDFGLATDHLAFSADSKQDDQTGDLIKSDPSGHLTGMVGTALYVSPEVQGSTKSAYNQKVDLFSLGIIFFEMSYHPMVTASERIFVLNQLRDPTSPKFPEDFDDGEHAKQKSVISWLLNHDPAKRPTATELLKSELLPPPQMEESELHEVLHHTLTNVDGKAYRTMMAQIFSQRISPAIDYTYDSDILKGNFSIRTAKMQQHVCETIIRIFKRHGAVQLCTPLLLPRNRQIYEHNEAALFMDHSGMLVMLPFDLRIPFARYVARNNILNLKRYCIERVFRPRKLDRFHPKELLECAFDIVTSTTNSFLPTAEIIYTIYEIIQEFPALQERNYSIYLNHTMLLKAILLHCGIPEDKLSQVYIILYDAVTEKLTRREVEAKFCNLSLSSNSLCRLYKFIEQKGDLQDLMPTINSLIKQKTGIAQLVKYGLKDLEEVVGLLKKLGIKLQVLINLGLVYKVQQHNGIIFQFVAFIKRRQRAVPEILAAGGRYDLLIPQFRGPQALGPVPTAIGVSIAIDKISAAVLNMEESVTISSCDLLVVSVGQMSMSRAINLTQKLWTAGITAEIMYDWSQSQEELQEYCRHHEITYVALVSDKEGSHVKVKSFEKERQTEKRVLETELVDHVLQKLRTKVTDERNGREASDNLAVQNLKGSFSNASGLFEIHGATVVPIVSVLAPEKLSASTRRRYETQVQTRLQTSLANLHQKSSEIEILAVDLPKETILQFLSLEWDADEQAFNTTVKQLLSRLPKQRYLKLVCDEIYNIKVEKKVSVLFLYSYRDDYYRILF
Chain of GCN2 kinase (Q9P2K8 whole entry): as above

Regarding `CC1CN(c2nccc(-c3cnc4cnc(C(F)(F)F)cn34)n2)CC(c2cn[nH]c2)O1` (single isomer, unassigned) [IV-200, 2-Methyl-6-(1H-pyrazol-4-yl)-4-(4-(6-(trifluoromethyl)imidazo[1,2-a]pyrazin-3-yl)pyrimidin-2-yl)morpholine], the Ki at GCN2 kinase is below 10 nM. In addition, the IC50 (commonly the midpoint of a concentration-inhibition curve) in assay [1] lay within 500 to 5000 nM.
As for `CC1CN(c2nccc(-c3cnc4cnc(C(F)(F)F)cn34)n2)CC(c2cn[nH]c2)O1` (single isomer, unassigned) [IV-201, 2-Methyl-6-(1H-pyrazol-4-yl)-4-(4-(6-(trifluoromethyl)imidazo[1,2-a]pyrazin-3-yl)pyrimidin-2-yl)morpholine], the Ki at GCN2 kinase is below 10 nM. Moreover, in assay [1], the IC50 is below 500 nM.
Taken in the same sequence, the figures for `CC1CN(c2nccc(-c3cnc4cnc(C(F)(F)F)cn34)n2)CC(c2cn[nH]c2)O1` (single isomer, unassigned) [IV-202, 2-Methyl-6-(1H-pyrazol-4-yl)-4-(4-(6-(trifluoromethyl)imidazo[1,2-a]pyrazin-3-yl)pyrimidin-2-yl)morpholine] were 10 to 100 nM and 500 to 5000 nM.
The corresponding values for `CC1CN(c2ccnc(-c3cnc4cnc(Cl)cn34)n2)CC(c2cn[nH]c2)N1` (single isomer, unassigned) [IV-213, 6-Chloro-3-(4-(3-methyl-5-(1H-pyrazol-4-yl)piperazin-1-yl)pyrimidin-2-yl)imidazo[1,2-a]pyrazine] are 10 to 100 nM and 500 to 5000 nM.
The corresponding values for `CC1CN(c2ccnc(-c3cnc4cnc(Cl)cn34)n2)CC(c2cn[nH]c2)N1` (single isomer, unassigned) [IV-214, 6-Chloro-3-(4-(3-methyl-5-(1H-pyrazol-4-yl)piperazin-1-yl)pyrimidin-2-yl)imidazo[1,2-a]pyrazine] are below 10 nM and below 500 nM.
As for `CC1CN(c2ccnc(-c3cnc4cnc(Cl)cn34)n2)CC(c2cn[nH]c2)O1` (single isomer, unassigned) [IV-216, 4-(2-(6-Chloroimidazo[1,2-a]pyrazin-3-yl)pyrimidin-4-yl)-2-methyl-6-(1H-pyrazol-4-yl)morpholine], the Ki on GCN2 kinase is below 10 nM. In assay [1], this compound registered an IC50 of 500 to 5000 nM.
The corresponding values for `CC1CN(c2ccnc(-c3cnc4cnc(Cl)cn34)n2)CC(c2cn[nH]c2)O1` (single isomer, unassigned) [IV-217, 4-(2-(6-Chloroimidazo[1,2-a]pyrazin-3-yl)pyrimidin-4-yl)-2-methyl-6-(1H-pyrazol-4-yl)morpholine] are below 10 nM and below 500 nM.
Taken in the same sequence, the figures for `CC1C(c2cn[nH]c2)NCCN1c1ccnc(-c2cnc3cnc(Cl)cn23)n1` (single isomer, unassigned) [IV-230, 6-Chloro-3-(4-(2-methyl-3-(1H-pyrazol-4-yl)piperazin-1-yl)pyrimidin-2-yl)imidazo[1,2-a]pyrazine] were below 10 nM and 500 to 5000 nM.
As for `CC1C(c2cn[nH]c2)OCCN1c1ccnc(-c2cnc3cnc(Cl)cn23)n1` (single isomer, unassigned) [IV-245, 4-(2-(6-Chloroimidazo[1,2-a]pyrazin-3-yl)pyrimidin-4-yl)-3-methyl-2-(1H-pyrazol-4-yl)morpholine], on GCN2 kinase, the Ki was 100 to 1000 nM. In assay [1], this compound registered an IC50 above 5000 nM.
In the case of `CC1CN(c2ccnc(-c3cnc4cnc(Cl)cn34)n2)C(C)C(c2cn[nH]c2)N1` (single isomer, unassigned) [IV-247, 6-Chloro-3-(4-(2,5-dimethyl-3-(1H-pyrazol-4-yl)piperazin-1-yl)pyrimidin-2-yl)imidazo[1,2-a]pyrazine], the Ki at GCN2 kinase was below 10 nM. Besides, the IC50 in assay [1] was below 500 nM.
Taken in the same sequence, the figures for `CC1CN(c2ccnc(-c3cnc4cnc(Br)cn34)n2)C(C)C(c2cn[nH]c2)N1` (single isomer, unassigned) [IV-288, 6-Bromo-3-(4-(2,5-dimethyl-3-(1H-pyrazol-4-yl)piperazin-1-yl)pyrimidin-2-yl)imidazo[1,2-a]pyrazine] were below 10 nM and below 500 nM.
Taken in the same sequence, the figures for `CC1CC(c2cn[nH]c2)C(C)N(c2ccnc(-c3cnc4cnc(C(F)(F)F)cn34)n2)C1` (single isomer, unassigned) [IV-311] were below 10 nM and below 500 nM.
Regarding `CC1C(c2cn[nH]c2)OCCN1c1ccnc(-c2cnc3cnc(C(F)(F)F)cn23)n1` (single isomer, unassigned) [IV-318, 3-Methyl-2-(1H-pyrazol-4-yl)-4-(2-(6-(trifluoromethyl)imidazo[1,2-a]pyrazin-3-yl)pyrimidin-4-yl)morpholine], the Ki at GCN2 kinase was below 10 nM. Moreover, in assay [1], the IC50 was below 500 nM.
The corresponding values for `CC1CN(c2ccnc(-c3cnc4cnc(C(F)(F)F)cn34)n2)C(C)C(c2cn[nH]c2)N1` (single isomer, unassigned) [IV-345, 3-(4-(2,5-Dimethyl-3-(1H-pyrazol-4-yl)piperazin-1-yl)pyrimidin-2-yl)-6-(trifluoromethyl)imidazo[1,2-a]pyrazine] are 10 to 100 nM and 500 to 5000 nM.
As for `CC1C(c2cn[nH]c2)NCCN1c1ccnc(-c2cnc3cnc(Br)cn23)n1` (single isomer, unassigned) [IV-350, 6-Bromo-3-(4-(2-methyl-3-(1H-pyrazol-4-yl)piperazin-1-yl)pyrimidin-2-yl)imidazo[1,2-a]pyrazine], the Ki at GCN2 kinase lay within 100 to 1000 nM. This compound also returned an IC50 in assay [1] of 500 to 5000 nM.
The corresponding values for `CC1C(c2cn[nH]c2)NCCN1c1ccnc(-c2cnc3cnc(Br)cn23)n1` (single isomer, unassigned) [IV-351, 6-Bromo-3-(4-(2-methyl-3-(1H-pyrazol-4-yl)piperazin-1-yl)pyrimidin-2-yl)imidazo[1,2-a]pyrazine] are below 10 nM and below 500 nM.
In turn, `CC1C(c2cn[nH]c2)NCCN1c1ccnc(-c2cnc3cnc(C(F)(F)F)cn23)n1` (single isomer, unassigned) [IV-357, 3-(4-(2-Methyl-3-(1H-pyrazol-4-yl)piperazin-1-yl)pyrimidin-2-yl)-6-(trifluoromethyl)imidazo[1,2-a]pyrazine] registered a Ki on GCN2 kinase of 100 to 1000 nM. Also, the IC50 in assay [1] was above 5000 nM.
Taken in the same sequence, the figures for `CC1C(c2cn[nH]c2)NCCN1c1ccnc(-c2cnc3cnc(C(F)(F)F)cn23)n1` (single isomer, unassigned) [IV-358, 3-(4-(2-Methyl-3-(1H-pyrazol-4-yl)piperazin-1-yl)pyrimidin-2-yl)-6-(trifluoromethyl)imidazo[1,2-a]pyrazine] were below 10 nM and 500 to 5000 nM.
Taken in the same sequence, the figures for `Brc1cn2c(-c3nccc(N4CCCC(c5cn[nH]c5)C4)n3)cnc2cn1` (single isomer, unassigned) [IV-360, 3-(4-(3-(1H-Pyrazol-4-yl)piperidin-1-yl)pyrimidin-2-yl)-6-bromoimidazo[1,2-a]pyrazine] were below 10 nM and below 500 nM.
Take `Brc1cn2c(-c3nccc(N4CCCC(c5cn[nH]c5)C4)n3)cnc2cn1` (single isomer, unassigned) [IV-361, 3-(4-(3-(1H-Pyrazol-4-yl)piperidin-1-yl)pyrimidin-2-yl)-6-bromoimidazo[1,2-a]pyrazine]: the Ki at GCN2 kinase was below 10 nM. For the same compound, the IC50 in assay [1] was below 500 nM.
The corresponding values for `Brc1cn2c(-c3nccc(N4CCCC(c5c[nH]cn5)C4)n3)cnc2cn1` (single isomer, unassigned) [IV-362, 3-(4-(3-(1H-Imidazol-4-yl)piperidin-1-yl)pyrimidin-2-yl)-6-bromoimidazo[1,2-a]pyrazine] are 10 to 100 nM and 500 to 5000 nM.
The corresponding values for `CC1CN(c2ccnc(-c3cnc4cnc(Br)cn34)n2)CC(c2cn[nH]c2)N1` (single isomer, unassigned) [IV-364, 6-Bromo-3-(4-(3-methyl-5-(1H-pyrazol-4-yl)piperazin-1-yl)pyrimidin-2-yl)imidazo[1,2-a]pyrazine] are 10 to 100 nM and 500 to 5000 nM.
The corresponding values for `CC1CN(c2ccnc(-c3cnc4cnc(Br)cn34)n2)CC(c2cn[nH]c2)N1` (single isomer, unassigned) [IV-365, 6-Bromo-3-(4-(3-methyl-5-(1H-pyrazol-4-yl)piperazin-1-yl)pyrimidin-2-yl)imidazo[1,2-a]pyrazine] are below 10 nM and 500 to 5000 nM.
`CC1CC(CS(C)(=N)=O)C(C)N(c2ccnc(-c3cnc4cnc(C(F)F)cn34)n2)C1` (single isomer, unassigned) [IV-366, ((1-(2-(6-(Difluoromethyl)imidazo[1,2-a]pyrazin-3-yl)pyrimidin-4-yl)-2,5-dimethylpiperidin-3-yl)methyl)(imino)(methyl)-λ^6-sulfanone] returned a Ki on GCN2 kinase of 100 to 1000 nM. The compound also displayed an IC50 in assay [1] above 5000 nM.
The corresponding values for `CC1CC(CS(C)(=N)=O)C(C)N(c2ccnc(-c3cnc4cnc(C(F)F)cn34)n2)C1` (single isomer, unassigned) [IV-368, ((1-(2-(6-(Difluoromethyl)imidazo[1,2-a]pyrazin-3-yl)pyrimidin-4-yl)-2,5-dimethylpiperidin-3-yl)methyl)(imino)(methyl)-λ^6-sulfanone] are 100 to 1000 nM and above 5000 nM.
Taken in the same sequence, the figures for `CC1CN(c2nccc(-c3cnc4cnc(C(F)(F)F)cn34)n2)C(C)C(c2cn[nH]c2)N1` (single isomer, unassigned) [IV-369, 3-(2-(2,5-Dimethyl-3-(1H-pyrazol-4-yl)piperazin-1-yl)pyrimidin-4-yl)-6-(trifluoromethyl)imidazo[1,2-a]pyrazine] were below 10 nM and 500 to 5000 nM.
